Tested on: murine macrophages
Assay: TNF-alpha production (ELISA) by Echinacea activated murine macrophages
Assay type: cell-based
Conditions: 24 hours; amino acid samples 20 mg/ml together with Echinacea; LPS 1 ng/ml; Negative Control 215 +/- 13.7
Source text: The rationale for the use of this process of laser enhancement is the result of an in vitro study using a similar short wavelength laser treatment. In this study, murine macrophages that were activated with Echinacea to simulate an irritated immune system were then fed the above formula of amino acids in the untreated and laser treated conditions. […] The specific details of the in vitro study are as follows. 20 grams of the amino acid blend as detailed above was used for each of the control and treated amino acid samples. The Untreated Sample was not treated. The Treated Sample was exposed to laser radiation from a 458 nm pumped argon gas laser with a primary power of 16.5 mW adjusted through the optics to a power level of 5.1 mW The duration of treatment of the sample was 30 seconds. The following bioassays were performed. A standardized Echinacea sample alone or with 20 mg/ml of the Untreated or Treated Sample amino acids were incubated in tissue culture media of triplicate wells of murine macrophages. […] The results were as follows and are expressed as the mean TNF-alpha production plus or minus the statistical standard deviation (SD): Using a Student's 2-tailed t-test, the Echinacea Stimulated Sample was compared to the results of Echinacea plus the Untreated Amino Acid Sample or the Treated Amino Acid Sample.

lipopolysaccharide [LPS]
TNF-alpha +/- SD (mean TNF-alpha production): 2863 +/− 185.7

Source: patent US8404733B2, “Laser enhanced amino acid blend and use of same to regenerate active myocardial tissue” (priority 2010, dated 2013)
